Paper PMC7048932, “Examining sterically demanding lysine analogs for histone lysine methyltransferase catalysis” (Scientific Reports, 2020)

What was measured:
SETD7 [1] = assay: MALDI-TOF MS methylation assay of H3K4 peptides with SETD7; format: biochemical, human; settings: peptide 100 µM, SETD7 2 µM, SAM 200 µM, 1 h, 37 °C
Procedure: (§1) MALDI-MS methyltransferases activity experiments were performed using a Bruker instrument in the reflectron positive mode. For regular methyltransferase standard conditions experiment which carried out in 30 µL total volume, the mixture contains peptide (100 µM), SAM (200 µM), SETD8 or SETD7 (2 µM), in assay buffer 50 mM Tris at optimal pH 8.0. In case of G9a and GLP, similar conditions were used, except (500 µM) of SAM was added to the reaction mixture. Samples were incubated in an Eppendorf vial 1.5 mL using thermomixer for 1 h at 37 °C. A 5 µL aliquot of the solution was mixed with 5 µL of MeOH, after which 5 µL of this mixture was mixed with 5 µL of α-cyano-4-hydroxycinamic acid matrix (CHCA, 5 mg/mL in 125:125 µL acetonitrile/water). The spots were placed on a stainless steel MALDI plate (MS 96 target ground steel BC of Bruker, Germany). The mass corresponding to one monomethylation observed as +14 Da, dimethylation observed as +28 Da and trimethylation observed as +42 Da. The enzymatic activity was determined by taking the peak areas of each methylation state, including all isotopes and adducts, and was annotated using FlexAnalysis software (Bruker Daltonics, Germany). […] Methylated peptide substrates were repeated five times and the unmethylated substrates were triplicated. Sequences of the examined peptides are given in (Supplementary Table 1).

SETD7 [2] = assay: Inhibition study of SETD7 (MALDI-TOF MS); format: biochemical, human; settings: peptide 100 µM, SETD7 100 nM, SAM 20 µM, 21-mer H3 peptide 5 µM, 30 min, 37 °C
Procedure: A mixture of histone peptide (0–100 µM final conc.) and SETD7, G9a or GLP (100 nM final conc.) was preincubated for 5 minutes at 37 °C in 18 µL of 50 mM glycine pH 8.8 containing 2.5% glycerol as assay buffer. Then 2 µL of a pre-mixture of SAM (20 µM final conc.) and 21-mer H3 histone peptide (residues 1–21, 5 µM final conc.) was added to afford a final assay mixture (20 µL) and the enzymatic reaction was incubated for an additional 30 minutes at 37 °C before quenching with 20 μL of MeOH. The quenched reaction (1 μL) was mixed with a solution of saturated α-cyano-4-hydroxycinnamic acid (5 μL) and spotted on the MALDI plate for crystallisation. The enzymatic activity was determined by taking the peak areas of each methylation state (including all isotopes and adducts) and is expressed relative to a control reaction in the absence of unnatural histone peptides. Each inhibition experiment was carried out in replicate.

SETD8 [3] = target: T1, SETD8 (Homo sapiens, UniProt Q9NQR1); assay: MALDI-TOF MS methylation assay of H4K20 peptides with SETD8; format: biochemical; settings: peptide 100 µM, 37 °C; for SETD8-catalyzed methylation, result in words, increased SETD8/SAM and prolonged incubation: SETD8 10 µM, SAM 1 mM, 1 h and 5 h, MALDI-MS
T1 construct: His6 (N); made in house; host or cells: E. coli BL21 (DE3)pLysS-rosetta
T1 sequence (Q9NQR1 1-393): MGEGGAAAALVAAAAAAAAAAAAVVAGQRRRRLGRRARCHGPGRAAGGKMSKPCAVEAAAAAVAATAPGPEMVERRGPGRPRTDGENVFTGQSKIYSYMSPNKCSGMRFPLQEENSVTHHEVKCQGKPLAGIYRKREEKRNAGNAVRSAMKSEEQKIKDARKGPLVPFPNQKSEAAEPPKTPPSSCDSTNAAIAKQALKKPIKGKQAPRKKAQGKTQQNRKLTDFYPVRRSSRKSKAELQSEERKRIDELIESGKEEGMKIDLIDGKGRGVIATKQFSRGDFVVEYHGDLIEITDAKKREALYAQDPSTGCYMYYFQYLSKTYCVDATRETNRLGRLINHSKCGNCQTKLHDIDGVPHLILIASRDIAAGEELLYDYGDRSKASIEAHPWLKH
Procedure: as §1, with “For regular methyltransferase standard conditions experiment which carried out in 30 µL total volume, the mixture contains peptide (100 µM), SAM (200 µM), SETD8 or SETD7 (2 µM), in assay buffer 50 mM Tris at optimal pH 8.0.” left out

SETD8 [4] = target: T1, SETD8; assay: Enzyme kinetics of SETD8-catalyzed methylation (MALDI-TOF MS); format: biochemical; settings: MALDI-TOF MS assay
Procedure: To establish the substrate efficiency of lysine- and KCP-containing histone peptides, we carried out enzyme kinetics analysis, employing the MALDI-TOF MS assays. Both enzymes preferentially catalyze methylation of natural histone sequences, however, bulkier KCP-containing peptides still underwent favorable kinetics profiles (Table 1 and Supplementary Fig. 30).
as §1

SETD8 [5] = target: T1, SETD8; assay: Competition study between H4K20 and analog peptides with SETD8 (MALDI-MS); format: biochemical; settings: SETD8, equimolar H4K20 (100 µM) and H4KCP20 (100 µM), SAM 200 µM, 1 h, 37 °C
From the text: Next, we carried out competition studies between histone peptides that bear lysine and its analogs. In the presence of SETD8, SAM and equimolar amounts of H4K20 and H4KCP20, we observed the formation of both monomethylated products, albeit a comparatively larger degree of monomethylation of H4K20 was found (70% of H4K20me, 40% of H4KCP20me). […] It is also possible that subtle differences in sterics and electronics of H4KCP20 when compared to H4K20 do contribute to observed differences in the degree of methylation in the competition experiment.
Figure S31. MALDI-MS based assay showing ( a) SETD8-catalyzed monomethylation of […]
(b) SETD8-catalyzed methylation of H4K20 (100 µM) in the presence of H4F 3a20 (100 µM) and SAM (200 µM) after 1 h at 37 °C; ( c) SETD8-catalyzed methylation of H4K20 (100 µM) in the presence of H4F 4a20 (100 µM) and SAM (200 µM) after 1 h at 37 °C; ( d) SETD8-catalyzed methylation of H4K20 (100 µM) in the presence of H4A p20 (100 µM) and SAM (200 µM) after 1 h at 37 °C; ( e) SETD8-catalyzed methylation of H4K20 (100 µM) in the presence of […]
(1 picture or pasted object on this page, not shown here)

[6] = SETD8 2 µM, SAM 200 µM, 50 mM Tris pH 8.0, 1 h, MALDI-TOF MS

Row | Substance | SETD7-catalyzed methylation, result in words (SETD7 [1]) | inhibition of SETD7 at 100 µM peptide (SETD7 [2]) | SETD8-catalyzed methylation, result in words (SETD8 [3]; [6]) | monomethylated product formed (H4KCP20me) (SETD8 [3]; [6]) | SETD8-catalyzed methylation, result in words, increased SETD8/SAM and prolonged incubation (SETD8 [3]) | SETD8-catalyzed methylation, result in words, increased SETD8/SAM and prolonged incubation (SETD8 [3]; listed as H4K CP20) | Km (SETD8 [4]) | kcat (SETD8 [4]) | kcat/KM (SETD8 [4]) | monomethylated product formed in competition experiment (SETD8 [5])
1 | ART(F4a4)QTARKSTGGKA [H3F4a4, H3K4 peptide bearing para-aminophenylalanine at position 4] | lack of methylation | 11% | – | – | – | – | – | – | – | –
2 | GGAKRHR(Kcp20)VLRDNIQ [H4KCP20, H4K20 peptide bearing cyclopropyllysine at position 20] | – | – | methylation | 60% | almost complete formation of the monomethylated H4KCP20me product | predominant monomethylation | 172 ± 37 µM | 0.0113 ± 0.0013 s⁻¹ | 66 M⁻¹ s⁻¹ | 40%
